{
  "source": "patent EP1042293B9",
  "about": "“SUBSTITUTED PYRIDINE AND PYRIDAZINE COMPOUNDS AND THEIR PHARMACEUTICAL USE” (AMGEN INC., priority 1997, dated 1999)",
  "data": [
    {"tested_on": "TNF production by monocytes activated with bacterial lipopolysaccharide (LPS)", "assay": "Lipopolysaccharide-activated monocyte TNF production assay", "assay_type": "cell-based", "details": "Homo sapiens, 4 h, adherent PBMC-derived monocytes, LPS from E. coli, TNF in supernatant by ELISA, read-out: IC50 values in the monocyte assay (LPS induced TNF release)", "protocol": "Test compounds were evaluated in vitro for the ability to inhibit the production of TNF by monocytes activated with bacterial lipopolysaccharide (LPS). Fresh residual source leukocytes (a byproduct of plateletpheresis) were obtained from a local blood bank, and peripheral blood mononuclear cells (PBMCs) were isolated by density gradient centrifugation on Ficol-Paque Plus (Pharmacia). PBMCs were suspended at […] /ml in DMEM supplemented to contain 2% FCS, 10 mM, 0.3 mg/ml glutamate, 100 U/ml penicillin G and […] streptomycin sulfate (complete media). Cells were plated into Falcon flat bottom, 96 well culture plates (200 µl/well) and cultured overnight at 37°C and 6% CO2. Non-adherent cells were removed by washing with 200 µl/well of fresh medium. Wells containing adherent cells (~70% monocytes) were replenished with 100 µl of fresh medium.\nTest compounds were dissolved in […]. Compound stock solutions were prepared to an initial concentration of […]. Stocks were diluted initially to 20 - 200 µM in complete media. Nine twofold serial dilutions of each compound were then prepared in complete medium.\nOne hundred microliters of each test compound dilution were added to microtiter wells containing adherent monocytes and 100 µl complete medium. Monocytes were cultured with test compounds for 60 min at which time 25 µl of complete medium containing 30 ng/ml lipopolysaccharide from E. coli K532 were added to each well. Cells were cultured an additional 4 hrs. Culture supernatants were then removed and TNF presence in the supernatants was quantified using an ELISA.\nFlat bottom, 96 well Corning High Binding ELISA plates were coated overnight (4°C) with 150 µL/well of 3 µg/ml murine anti-human TNF-α MAb (R&D Systems #MAB210). […]\nStandard curve data were fit to a second order polynomial and unknown TNF-α concentrations determined from their OD by solving this equation for concentration. […]", "units": {"IC50": "µM"}, "values": [
      {"smiles": "Cc1cccc(-c2cc(OC[C@@H](N)Cc3ccccc3)ncc2-c2ccncc2)c1", "note": "[Example 14, 2-((S)-2-amino-3-phenylpropoxy)-4-(3-methylphenyl)-5-(4-pyridyl)pyridine]", "IC50": "≤ 20"},
      {"smiles": "Cc1cccc(-c2cc(OCCCc3ccccc3)ncc2-c2ccncc2)c1", "note": "[Example 18, 2-(3-phenylpropoxy)-4-(3-methylphenyl)-5-(4-pyridyl)pyridine]", "IC50": "≤ 20"},
      {"smiles": "Cc1cccc(-c2cc(=O)n(CCCc3ccccc3)cc2-c2ccncc2)c1", "note": "[Example 19, 1-(3-phenylpropyl)-4-(3-methylphenyl)-5-(4-pyridyl)-1H-pyrid-2-one]", "IC50": "≤ 20"}
    ]}
  ]
}
